According to US20060069132A1, “Azolecarboxamide herbicides” (priority 2004, published 2006):

Tests used:
rice [1] = test: Test B flooded paddy test; type: in vivo, Oryza sativa; settings: 1000 g ai/ha, scale 0 to 100 (0 no effect, 100 complete control)
Procedure, shortened: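 Formulated test chemicals went onto postemergence plants measuring 2 to 18 cm, at one to four leaves. For the paddy assay, species had reached two leaves. Scoring took place 13–15 days later by eye, relative to untreated plants, using 0 for no effect up to 100 for full control.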

wild oat = test: Test B postemergence herbicide test; type: in vivo, Avena fatua
Procedure, shortened: (§1)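 Greenhouse test; postemergence application to plants at 1–4 leaves (2–18 cm); paddy species at 2 leaves; evaluated visually vs controls at 13–15 days; scale 0–100 (100 = complete control).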

giant foxtail = test: Test B pre-/postemergence herbicide test; type: in vivo, Setaria faberi
Procedure, shortened: (§2)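 Plants compared with untreated controls 13–15 days post-treatment and given a visual 0–100 injury score. Applications: preemergence to seeds; postemergence at 1- to 4-leaf (2–18 cm); paddy species flooded, 2-leaf stage. Vehicle non-phytotoxic, surfactant included.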

large crabgrass = test: Test B pre-/postemergence herbicide test; type: in vivo, Digitaria sanguinalis
Procedure, shortened: as §2

barnyardgrass [2] = test: Test B flooded paddy test; type: in vivo, Echinochloa crus-galli; settings: 1000 g ai/ha, scale 0 to 100 (0 no effect, 100 complete control)
Procedure, shortened: (§3)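 Each value is a visual 0–100 response rating taken against controls 13 to 15 days after treatment in the greenhouse. Plants received formulated chemical postemergence at the 1- to 4-leaf stage or, in flooded paddy, at the 2-leaf stage.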

ducksalad = test: Test B flooded paddy test; type: in vivo, Heteranthera limosa; settings: 1000 g ai/ha, scale 0 to 100 (0 no effect, 100 complete control)
Procedure, shortened: as §3

Surinam grass = test: Test B pre-/postemergence herbicide test; type: in vivo, Urochloa decumbens
Procedure, shortened: as §2

barnyardgrass [3] = test: Test B pre-/postemergence herbicide test; type: in vivo, Echinochloa crus-galli
Procedure, shortened: (§4)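 Evaluation is visual, comparing treated with control plants on a scale where 0 means no effect and 100 means full control. Treatments were preemergence, or postemergence on seedlings 2–18 cm tall, and held 13–15 days in the greenhouse.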

velvetleaf = test: Test B pre-/postemergence herbicide test; type: in vivo, Abutilon theophrasti
Procedure, shortened: as §2

corn = test: Test B pre-/postemergence herbicide test; type: in vivo, Zea mays
Procedure, shortened: as §2

wheat = test: Test B postemergence herbicide test; type: in vivo, Triticum aestivum; set-up: key to Wheat plant response rating: 0 = no effect, 100 = complete control
Procedure, shortened: as §1

blackgrass = test: Test B postemergence herbicide test; type: in vivo, Alopecurus myosuroides
Procedure, shortened: as §3

rice [4] = test: Test B pre-/postemergence herbicide test; type: in vivo, Oryza sativa; settings: preemergence; for Plant response rating, Rice: 500 g ai/ha, visual rating
Procedure, shortened: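 Greenhouse pot assay with simultaneous preemergence (treated seed) and postemergence (2–18 cm seedlings) applications of surfactant-containing, non-phytotoxic solvent formulations. Response scored visually 13–15 days later on a 0–100 scale, 100 meaning complete control.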

lambsquarters = test: Test B pre-/postemergence herbicide test; type: in vivo, Chenopodium album
Procedure, shortened: as §2

morningglory = test: Test B pre-/postemergence herbicide test; type: in vivo, Ipomoea coccinea
Procedure, shortened: as §4

cocklebur = test: Test B pre-/postemergence herbicide test; type: in vivo, Xanthium strumarium
Procedure, shortened: as §4

[5] = system: small flower umbrella sedge; test: Test B flooded paddy test; type: in vivo, Cyperus difformis; settings: 1000 g ai/ha, scale 0 to 100 (0 no effect, 100 complete control)
Procedure, shortened: as §3

pigweed = test: Test B pre-/postemergence herbicide test; type: in vivo, Amaranthus retroflexus
Procedure, shortened: as §2

[6] = 125 g ai/ha; visual rating, scale 0 (no effect) to 100 (complete control); postemergence
[7] = postemergence, 500 g ai/ha; scale 0 to 100, 0 is no effect, 100 is complete control
[8] = 125 g ai/ha; 0 is no effect, 100 is complete control; preemergence
[9] = 500 g ai/ha; visual rating, 0 = no effect, 100 = complete control; preemergence
[10] = 0 = no effect, 100 = complete control
[11] = postemergence, 125 g ai/ha; visual rating, scale 0 (no effect) to 100 (complete control)
[12] = 125 g ai/ha; 0 = no effect, 100 = complete control; preemergence
[13] = postemergence, 500 g ai/ha; visual rating, scale 0 (no effect) to 100 (complete control)

SMILES: CCNC(=O)c1cccc(NC(=O)c2cc(C(C)(C)C)n[nH]2)c1 [Compound 351]
- Rice plant response rating (rice [1]): 0
- Oat, Wild plant response rating (wild oat; [6]): 0
- Oat, Wild plant response rating (wild oat; [7]): 0
- Plant response rating (0 to 100 scale), Foxtail, Giant (giant foxtail; [8]): 0
- Foxtail, Giant plant response rating (giant foxtail; [6]): 0
- Plant response rating, Foxtail, Giant (giant foxtail; [9]): 0
- Foxtail, Giant plant response rating (giant foxtail; [7]): 0
- Plant response rating (0 to 100 scale), Crabgrass, Large (large crabgrass; [8]): 0
- Crabgrass, Large plant response rating (large crabgrass; [6]): 0
- Plant response rating, Crabgrass, Large (large crabgrass; [9]): 0
- Crabgrass, Large plant response rating (large crabgrass; [7]): 10
- Barnyardgrass plant response rating (barnyardgrass [2]): 0
- Ducksalad plant response rating (ducksalad): 0
- Plant response rating (0 to 100 scale), Surinam Grass (Surinam grass; [8]): 0
- Surinam Grass plant response rating (Surinam grass; [6]): 0
- Plant response rating, Surinam Grass (Surinam grass; [9]): 0
- Surinam Grass plant response rating (Surinam grass; [7]): 0
- Plant response rating (0 to 100 scale), Barnyardgrass (barnyardgrass [3]; [8]): 0
- Barnyardgrass plant response rating (barnyardgrass [3]; [6]): 0
- Plant response rating, Barnyardgrass (barnyardgrass [3]; [9]): 0
- Barnyardgrass plant response rating (barnyardgrass [3]; [7]): 0
- Plant response rating (0 to 100 scale), Velvetleaf (velvetleaf; [8]): 0
- Velvetleaf plant response rating (velvetleaf; [6]): 0
- Velvetleaf plant response rating (velvetleaf; [7]): 0
- Plant response rating (0 to 100 scale), Corn (corn; [8]): 0
- Corn plant response rating (corn; [6]): 0
- Plant response rating, Corn (corn; [9]): 0
- Corn plant response rating (corn; [7]): 10
- Wheat plant response rating (wheat; [6]): 0
- Wheat plant response rating (wheat; [7]): 0
- Blackgrass plant response rating (blackgrass; [6]): 0
- Blackgrass plant response rating (blackgrass; [7]): 0
- Plant response rating (0 to 100 scale), Rice (rice [4]; 125 g ai/ha, 0 is no effect, 100 is complete control): 0
- Plant response rating, Rice (rice [4]; [10]): 0
- Plant response rating (0 to 100 scale), Lambsquarters (lambsquarters; [8]): 0
- Lambsquarters plant response rating (lambsquarters; [6]): 0
- Plant response rating, Lambsquarters (lambsquarters; [9]): 0
- Lambsquarters plant response rating (lambsquarters; [7]): 10
- Plant response rating (0 to 100 scale), Morningglory (morningglory; [8]): 0
- Morningglory plant response rating (morningglory; [6]): 0
- Plant response rating, Morningglory (morningglory; [9]): 0
- Morningglory plant response rating (morningglory; [7]): 0
- Plant response rating (0 to 100 scale), Cocklebur (cocklebur; [8]): 0
- Cocklebur plant response rating (cocklebur; [6]): 0
- Plant response rating, Cocklebur (cocklebur; [9]): 0
- Cocklebur plant response rating (cocklebur; [7]): 0
- Sedge, Umbrella plant response rating [5]: 0
- Plant response rating (0 to 100 scale), Pigweed (pigweed; [8]): 0
- Pigweed plant response rating (pigweed; [6]): 0
- Plant response rating, Pigweed (pigweed; [9]): 0
- Pigweed plant response rating (pigweed; [7]): 50

SMILES: CCCOC(=O)c1cc(NC(=O)c2cc(C(C)(C)C)nn2CC)c(F)cc1F [Compound 249]
- Rice plant response rating (rice [1]): 0
- Oat, Wild plant response rating (wild oat; [11]): 30
- Oat, Wild plant response rating (wild oat; [7]): 40
- Foxtail, Giant plant response rating (0 to 100 scale) (giant foxtail; [12]): 0
- Plant response rating, Foxtail, Giant (giant foxtail; [9]): 0
- Foxtail, Giant plant response rating (giant foxtail; [11]): 20
- Foxtail, Giant plant response rating (giant foxtail; [7]): 30
- Crabgrass, Large plant response rating (0 to 100 scale) (large crabgrass; [12]): 0
- Plant response rating, Crabgrass, Large (large crabgrass; [9]): 0
- Crabgrass, Large plant response rating (large crabgrass; [11]): 10
- Crabgrass, Large plant response rating (large crabgrass; [7]): 30
- Barnyardgrass plant response rating (barnyardgrass [2]): 0
- Ducksalad plant response rating (ducksalad): 0
- Surinam Grass plant response rating (0 to 100 scale) (Surinam grass; [12]): 0
- Plant response rating, Surinam Grass (Surinam grass; [9]): 20
- Surinam Grass plant response rating (Surinam grass; [11]): 10
- Surinam Grass plant response rating (Surinam grass; [7]): 30
- Barnyardgrass plant response rating (0 to 100 scale) (barnyardgrass [3]; [12]): 0
- Plant response rating, Barnyardgrass (barnyardgrass [3]; [9]): 0
- Barnyardgrass plant response rating (barnyardgrass [3]; [11]): 10
- Barnyardgrass plant response rating (barnyardgrass [3]; [13]): 20
- Velvetleaf plant response rating (0 to 100 scale) (velvetleaf; [12]): 0
- Plant response rating, Velvetleaf (velvetleaf; [9]): 0
- Velvetleaf plant response rating (velvetleaf; [11]): 10
- Velvetleaf plant response rating (velvetleaf; [7]): 20
- Corn plant response rating (0 to 100 scale) (corn; [12]): 0
- Plant response rating, Corn (corn; [9]): 0
- Corn plant response rating (corn; [11]): 10
- Corn plant response rating (corn; [7]): 20
- Wheat plant response rating (wheat; [11]): 30
- Wheat plant response rating (wheat; [7]): 30
- Blackgrass plant response rating (blackgrass; [11]): 20
- Blackgrass plant response rating (blackgrass; [13]): 30
- Rice plant response rating (0 to 100 scale) (rice [4]; 125 g ai/ha, 0 = no effect, 100 = complete control): 0
- Plant response rating, Rice (rice [4]; [10]): 0
- Lambsquarters plant response rating (0 to 100 scale) (lambsquarters; [12]): 0
- Lambsquarters plant response rating (lambsquarters; [11]): 10
- Lambsquarters plant response rating (lambsquarters; [7]): 20
- Morningglory plant response rating (0 to 100 scale) (morningglory; [12]): 0
- Plant response rating, Morningglory (morningglory; [9]): 10
- Morningglory plant response rating (morningglory; [11]): 20
- Morningglory plant response rating (morningglory; [7]): 30
- Cocklebur plant response rating (0 to 100 scale) (cocklebur; [12]): 0
- Plant response rating, Cocklebur (cocklebur; [9]): 0
- Cocklebur plant response rating (cocklebur; [11]): 30
- Cocklebur plant response rating (cocklebur; [13]): 30
- Sedge, Umbrella plant response rating [5]: 30
- Pigweed plant response rating (0 to 100 scale) (pigweed; [12]): 0
- Plant response rating, Pigweed (pigweed; [9]): 0
- Pigweed plant response rating (pigweed; [11]): 20
- Pigweed plant response rating (pigweed; [7]): 80
